Source: ChEMBL document CHEMBL1136273, “Design and synthesis of factor Xa inhibitors and their prodrugs” (Bioorg Med Chem Lett, 2003)

Tests used:
[1] = Oral bioavailability in dog; assay type: ADME, organism-based, Canis lupus familiaris; conditions: in vivo
[2] = target: Coagulation factor X (Homo sapiens, UniProt P00742); experiment: Inhibitory concentration to coagulation factor X
[3] = Cmax in rats; assay type: ADME, organism-based; conditions: rat, in vivo
[4] = target: Prothrombin (Homo sapiens, UniProt P00734); experiment: Inhibitory concentration required against Thrombin

Chain of Coagulation factor X (P00742 41-179 limits assumed): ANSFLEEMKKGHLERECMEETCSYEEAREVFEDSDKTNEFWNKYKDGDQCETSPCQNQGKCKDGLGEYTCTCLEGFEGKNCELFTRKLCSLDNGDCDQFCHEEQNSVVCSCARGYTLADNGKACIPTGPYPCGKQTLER
Chain of Coagulation factor X (P00742 235-488 limits assumed): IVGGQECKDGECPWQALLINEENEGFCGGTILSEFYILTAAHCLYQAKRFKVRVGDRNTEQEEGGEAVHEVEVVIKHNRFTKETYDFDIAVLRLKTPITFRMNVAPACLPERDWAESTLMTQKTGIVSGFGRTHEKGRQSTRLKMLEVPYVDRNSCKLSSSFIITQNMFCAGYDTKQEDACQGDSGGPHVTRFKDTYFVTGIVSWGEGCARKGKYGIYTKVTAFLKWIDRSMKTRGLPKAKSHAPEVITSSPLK

| IC50 [2] [µM] | SMILES | also measured |
| --- | --- | --- |
| 0.001 | N=C(N)c1cccc(/C(=C(/F)C(=O)Nc2ccc(-c3ccccc3S(N)(=O)=O)cc2)n2cccn2)c1 | bioavailability [1]: < 5% |
| 0.078 | C/C(=C1\CC(=O)N(c2ccc(-c3ccccc3S(N)(=O)=O)cc2)C1=O)c1cccc(C(=N)NN)c1 |  |
| 0.89 | C/N=C(\N)c1cccc(/C(C)=C(/F)C(=O)Nc2ccc(-c3ccccc3S(N)(=O)=O)cc2)c1 |  |
| 0.71 | C/C(=C1\CC(=O)N(c2ccc(-c3ccccc3S(N)(=O)=O)cc2)C1=O)c1cccc(C(=N)NO)c1 |  |
| 0.12 | CC(c1cccc(C(=N)N)c1)C1CC(=O)N(c2ccc(-c3ccccc3S(N)(=O)=O)cc2)C1=O (stereo unspecified) |  |
| 0.048 | CNNC(=N)c1cccc(/C(C)=C2/CC(=O)N(c3ccc(-c4ccccc4S(N)(=O)=O)cc3)C2=O)c1 |  |
| 0.44 | C/C(=C(\F)C(=O)Nc1ccc(-c2ccccc2S(N)(=O)=O)cc1)c1cccc(C(=N)NO)c1 |  |
| 0.89 | C/C(=C(\F)C(=O)Nc1ccc(-c2ccccc2S(N)(=O)=O)cc1)c1cccc(C(=N)N2CCC2)c1 |  |

Second part, the compound before the results:

| SMILES | IC50 [2] [µM] | also measured |
| --- | --- | --- |
| C/C(=C(\F)C(=O)Nc1ccc(-c2ccccc2S(N)(=O)=O)cc1F)c1cccc(C(=N)NO)c1 | 1.59 |  |
| C/C(=C(\F)C(=O)Nc1ccc(-c2ccccc2S(N)(=O)=O)cc1)c1cccc(C(=N)NC#N)c1 | 0.253 |  |
| C/C(=C(\F)C(=O)Nc1ccc(-c2ccccc2S(N)(=O)=O)cc1Br)c1cccc(C(=N)NO)c1 | 1.18 | Cmax [3]: 630 ng/mL |
| N=C(NO)c1cccc(/C(=C(/F)C(=O)Nc2ccc(-c3ccccc3S(N)(=O)=O)cc2)n2cccn2)c1 | 3.79 | bioavailability [1]: 25% |
| C/C(=C(\F)C(=O)Nc1ccc(-c2ccccc2S(N)(=O)=O)cc1)c1cccc(C(=N)NN(C)C)c1 | 0.49 |  |
| C/C(=C1\CC(=O)N(c2ccc(C(C)(C)C)cc2)C1=O)c1cccc(C(=N)N)c1 | 0.029 | IC50 [4]: 0.076 µM |
| C/C(=C(\F)C(=O)Nc1ccc(-c2ccccc2S(N)(=O)=O)cc1Br)c1cccc(C(=N)N)c1 |  | Cmax [3]: 168 ng/mL |
| CNNC(=N)c1cccc(/C(C)=C(/F)C(=O)Nc2ccc(-c3ccccc3S(N)(=O)=O)cc2)c1 | 0.028 |  |
| C/C(=C(\F)C(=O)Nc1ccc(-c2ccccc2S(N)(=O)=O)cc1F)c1cccc(C(=N)NN)c1 | 0.11 |  |
| C/C(=C(\F)C(=O)Nc1ccc(-c2ccccc2S(N)(=O)=O)cc1Cl)c1cccc(C(=N)NO)c1 | 0.75 |  |
| C/C(=C(\F)C(=O)Nc1ccc(-c2ccccc2S(N)(=O)=O)cc1)c1cccc(C(=N)NNc2ccccc2)c1 | 0.75 |  |
| C/C(=C(\F)C(=O)Nc1ccc(-c2ccccc2S(N)(=O)=O)cc1)c1ccc2[nH]nc(N)c2c1 | 5.91 |  |
| C/C(=C(\CC(N)=O)C(=O)Nc1ccc(-c2ccccc2S(N)(=O)=O)cc1)c1cccc(C(=N)N)c1 |  | IC50 [4]: 1.6 µM |
| C/C(=C(\F)C(=O)Nc1ccc(-c2ccccc2S(N)(=O)=O)cc1Br)c1cccc(C(=N)NN)c1 | 0.057 |  |
| C/C(=C(\F)C(=O)Nc1ccc(-c2ccccc2S(N)(=O)=O)cc1Cl)c1cccc(C(=N)NN)c1 | 0.041 |  |
| C/C(=C(\F)C(=O)Nc1ccc(-c2ccccc2S(N)(=O)=O)cc1)c1cccc(C(=N)NNCC(F)(F)F)c1 | 0.42 |  |
| C/C(=C1\CC(=O)N(c2ccc(-c3ccccc3S(N)(=O)=O)cc2)C1=O)c1cccc(C(=N)N)c1 |  | IC50 [4]: 0.67 µM |
| C/C(=C1\CC(=O)N(c2ccc(C(=O)N3CCCC3)cc2)C1=O)c1cccc(C(=N)N)c1 | 0.18 | IC50 [4]: 10.7 µM |
